Publication PMC7699745, “The Search for New Anticonvulsants in a Group of (2,5-Dioxopyrrolidin-1-yl)(phenyl)Acetamides with Hybrid Structure—Synthesis and In Vivo/In Vitro Studies” (International Journal of Molecular Sciences, 2020)

Test system: hepatoma HepG2 cells
Experiment: Hepatotoxicity, MTS cell viability assay
Format: cell-based
Details: 100 µM, 72 h
Description: The hepatotoxicity assessment was done with use of hepatoma HepG2 cells, which were incubated for 72 h in the presence of 1–100 µM concentrations of 4, 24, and 30. The CellTiter 96® aqueous nonradioactive cell proliferation assay (MTS) purchased from Promega (Madison, WI, USA) was used for determination of cell viability. The absorbance was measured using a microplate reader EnSpire (PerkinElmer, Waltham, MA, USA) at 492 nm. The obtained results confirmed the safety of the investigated series.
These studies were performed on hepatoma HepG2 cells, according to a protocol reported previously

O=C(NCCc1cccc(OC(F)(F)F)c1)C(c1ccccc1)N1C(=O)CCC1=O (stereo not shown) [Compound 30, 2-(2,5-Dioxopyrrolidin-1-yl)-2-phenyl-N-(3-(trifluoromethoxy)phenethyl)acetamide] was tested, and the “effect on HepG2 cells viability” value was “statistically significant (p < 0.001) effect on cells viability”.
